# In patent US7947740B2, “Bimatoprost crystalline form I” (Finetech Pharmaceutical Ltd, priority 2006, dated 2011):
# Experiments:
# [1] = Thermodynamic stability of the crystalline modifications of bimatoprost; type: physicochemical; conditions: temperature range between −70 and +30° C.
# Method: (§1) Stability data supports the retest period of not less than 6 months if bimatoprost crystalline form I is stored in an appropriate container at 2 to 8° C. and at 25° C.
# The importance of bimatoprost crystalline form I rests primarily (but not exclusively) in its thermodynamic stability. […] For example, the crystalline form I may be easily prepared by recrystallizing, triturating, or reslurring of crystalline form A.
# [2] = Storage stability (retest period) of the crystalline form; type: physicochemical
# Method: as §1
structure (smiles),measurement,setting,value
"CCNC(=O)CCC/C=C\C[C@@H]1[C@@H](/C=C/[C@@H](O)CCc2ccccc2)[C@H](O)C[C@@H]1O [Bimatoprost crystalline form I, (9S,11R,15S)-9,11,15-trihydroxy-17-phenyl-18,19,20-trinor-5Z,13E-prostadienoic acid ethylamide]",relative stability among crystalline modifications of bimatoprost,[1],most stable crystalline modification
same,retest period supported by stability data,[2]; stored in an appropriate container at 2 to 8° C.,not less than 6 months
same,retest period supported by stability data,[2]; stored in an appropriate container at 25° C.,not less than 6 months
